Test results taken from US20150051242A1, “RAFAMYCIN ANALOGS AND METHODS FOR MAKING SAME” (HANGZHOU ZYLOX PHARMA CO., LTD, priority 2012, published 2015).

biological target: T1, mTOR (Homo sapiens, UniProt P42345+P62942); test: mTOR TR-FRET kinase assay (phosphorylation of GFP-4E-BP1); type: biochemical; conditions: 10 μM ATP, 0.4 μM GFP-4E-BP1, read-out: IC50 mTOR inhibition
T1 construct: purchased Invitrogen (mTOR); SinoBiological (FKBP12) PV4753 (mTOR); 10268-H08E (FKBP12)
Description: Now we use a Terbium labeled anti-phosphorylated 4E--BP1 antibody to detect phosphorylation of the GFP-labeled substrate by mTOR. This TR-FRET based assay can be used to screen inhibitors of mTOR in vitro.
Materials: Assay buffer components: 1M HEPES pH7.5, GIBCO, Cat#15630: 1M MgCl2, Sigma, Cat# M1028: 0.5M EDTA, GIBCO, Cat# 15575: DTT, Sigma Cat# 43819: EGTA, Sigma Cat# E3889; Triton X100, Sigma, Cat# T8787: USA CALBIOCHEM Cat# 126575.
Enzyme, substrate and detection reagents: mTOR: Invitrogen, Cat# PV4753: GFP-4E-BPI: Invitrogen, Cat# PV4759: FKBP12: SinoBiological, Cat# 10268-H08E: ATP: Sigma Cat# A26209: Tb-anti-p4E-BP1: Invitrogen, Cat# PV4755: TR-FRET Dilution buffer Invitrogen, Cat# PV3574.
Plate: Compounds preparation plate: 384-well, Corning cat# 3657: Assay plate: black low volume 384 well microtiter plate (Greiner Bio-One, Cat# 784076).
Procedure: Compounds dosage gradient solution preparation:
Compounds were 3-fold serial diluted in 100% DMSO in a microtiter plate (Corning 3674) at 11 different concentrations in the range of 100 μM to 1.7 nM (100 μM, 33 μM, 11 μM, 3.7 μM, 1.2 μM, 411 nM, 137 nM, 46 nM, 15 nM, 5 nM, 1.7 nM). Then the diluted compounds in 100% DMSO was 10-fold diluted with ddH2O, so the compounds were in 10% DMSO.
0.5 μl diluted compounds in 10% DMSO was pipetted into a black low volume 384 well microtiter plate (Greiner Bio-One, Frickenhausen, Germany, cat# 784076): 2 μl of a solution of mTOR in aqueous assay buffer |50 mM HEPES/NaOH pH 7.5. mM MgCl12, 1.0 mM dithiothreitol, 1 mM EGTA, 0.01% (v/v) Triton-X100 (Sigma), 0.01% (w/v| bovine serum albumine (BSA)| (mTOR, 0.3125 ng/μl=>final cone, in the 5 μl assay volume is 0.125 ng/μl) were added to the assay plate and the compound-enzyme mixture was incubated for 15 min at 22° C. to allow pre-binding of the test compounds to the enzyme before the start of the kinase reaction:
The kinase reaction was started by the addition of 2.5 μl of a solution of ATP (ATP, […]=>final conc., in the 5 μl assay volume is 10 μM) and substrate (0.8 μM=>final conc. in the 5 μl assay volume is 0.4 μM) in assay buffer and the resulting mixture was incubated for 18 min at 22° C.
The reaction was stopped by the addition of 5 ul of 30 mM EDTA (EDTA, 30 mM=> final cone, in the 10 ∥l assay volume is 15 mM) and 4 nM Tb-chelate labeled anti-4E-BP1 |pT46| phosphospecific antibody |Invitrogen Cat# PV4755| (Tb-labeled antibody, 4 nM=>final conc. in the 10 μl assay volume is 2 nM) in TR-FRET dilution buffer, the resulting mixture was incubated 1 hour at 22° C. to allow the formation of complex of the phosphorylated substrate and the Tb-chelate labeled antibody.
The amount of phosphorylated substrate was evaluated by measurement of the resonance energy transfer from the Tb-chelate to the GFP. Therefore, the fluorescence emission at 495 nmn and 520 nm after excitation at 340 nm was measured on envision 2104 multilabel reader (Perkin-Elmer). The ratio of the emission at 520 nm and at 495 nm was taken as the measure for the amount of phosphorylated substrate. The data were normalised (enzyme reaction without inhibitor=0% inhibition, all other assay components but no enzyme=100% inhibition) and IC50 values were calculated by a 4 parameter fit (equation (1)) using IDBS XLfit software (ID Business Solutions Ltd., UK)
Y=Bottom+(TOP−Bottom)/(1+10̂((LogIC50−X)*hillslope)) equation (1)
In this equation, Y was the normalized % inhibition value. X was the log value of the test compound concentration. IC50 was the concentration of compound where half of maximal inhibition was achieved.

T1 sequence (P42345 1360-2549 limits assumed): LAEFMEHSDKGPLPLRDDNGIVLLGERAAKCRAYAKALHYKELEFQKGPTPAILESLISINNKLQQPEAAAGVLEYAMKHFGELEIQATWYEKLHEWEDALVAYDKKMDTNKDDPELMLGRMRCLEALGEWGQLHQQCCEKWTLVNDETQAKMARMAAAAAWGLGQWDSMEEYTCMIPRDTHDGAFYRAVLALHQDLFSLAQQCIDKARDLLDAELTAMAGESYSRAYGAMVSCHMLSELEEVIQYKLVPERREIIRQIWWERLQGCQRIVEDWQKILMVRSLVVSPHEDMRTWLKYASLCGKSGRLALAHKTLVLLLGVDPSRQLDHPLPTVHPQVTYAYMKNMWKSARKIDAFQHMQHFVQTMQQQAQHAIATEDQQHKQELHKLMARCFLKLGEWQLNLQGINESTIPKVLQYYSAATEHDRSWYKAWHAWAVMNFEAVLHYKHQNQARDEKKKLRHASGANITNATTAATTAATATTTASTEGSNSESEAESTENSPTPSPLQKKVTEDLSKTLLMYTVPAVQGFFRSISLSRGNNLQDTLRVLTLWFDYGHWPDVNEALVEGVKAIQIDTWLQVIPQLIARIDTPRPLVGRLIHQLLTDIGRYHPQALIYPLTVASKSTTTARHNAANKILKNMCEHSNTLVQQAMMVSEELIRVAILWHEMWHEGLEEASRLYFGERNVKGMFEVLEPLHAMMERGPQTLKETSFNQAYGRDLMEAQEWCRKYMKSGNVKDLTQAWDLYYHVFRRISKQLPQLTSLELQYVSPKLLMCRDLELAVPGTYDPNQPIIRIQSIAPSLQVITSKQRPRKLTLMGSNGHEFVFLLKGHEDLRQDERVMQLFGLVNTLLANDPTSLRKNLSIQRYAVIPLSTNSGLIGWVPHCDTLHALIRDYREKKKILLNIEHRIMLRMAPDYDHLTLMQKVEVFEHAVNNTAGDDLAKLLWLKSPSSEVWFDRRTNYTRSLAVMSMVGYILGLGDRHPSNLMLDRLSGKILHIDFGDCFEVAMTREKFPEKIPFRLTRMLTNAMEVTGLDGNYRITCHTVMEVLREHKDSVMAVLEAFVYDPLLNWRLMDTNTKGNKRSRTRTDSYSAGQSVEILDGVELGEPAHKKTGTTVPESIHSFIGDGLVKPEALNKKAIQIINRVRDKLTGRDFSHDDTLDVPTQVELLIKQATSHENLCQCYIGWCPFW
T1 sequence (P62942 whole entry): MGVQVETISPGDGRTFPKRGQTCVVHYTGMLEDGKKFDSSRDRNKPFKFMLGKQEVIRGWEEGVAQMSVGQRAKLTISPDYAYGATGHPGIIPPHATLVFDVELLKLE

Compound | IC50
CO[C@H]1C[C@@H]2CC[C@@H](C)[C@@](O)(O2)C(=O)C(=O)N2CCCC[C@H]2C(=O)O[C@H]([C@H](C)C[C@@H]2CC[C@H](n3cc(COc4ccc(S(N)(=O)=O)cc4)nn3)[C@H](OC)C2)CC(=O)[C@H](C)/C=C(\C)[C@@H](O)[C@@H](OC)C(=O)[C@H](C)C[C@H](C)/C=C/C=C/C=C/1C [Compound B12] | 35.2 nM
CO[C@H]1C[C@@H]2CC[C@@H](C)[C@@](O)(O2)C(=O)C(=O)N2CCCC[C@H]2C(=O)O[C@H]([C@H](C)C[C@@H]2CC[C@H](n3cc(-c4ccc(S(N)(=O)=O)cc4)nn3)[C@H](OC)C2)CC(=O)[C@H](C)/C=C(\C)[C@@H](O)[C@@H](OC)C(=O)[C@H](C)C[C@H](C)/C=C/C=C/C=C/1C [Compound B13] | 29 nM
CO[C@H]1C[C@@H]2CC[C@@H](C)[C@@](O)(O2)C(=O)C(=O)N2CCCC[C@H]2C(=O)O[C@H]([C@H](C)C[C@@H]2CC[C@H](n3cc(-c4cccnc4)nn3)[C@H](OC)C2)CC(=O)[C@H](C)/C=C(\C)[C@@H](O)[C@@H](OC)C(=O)[C@H](C)C[C@H](C)/C=C/C=C/C=C/1C [Compound B9] | 27.2 nM
CO[C@H]1C[C@@H]2CC[C@@H](C)[C@@](O)(O2)C(=O)C(=O)N2CCCC[C@H]2C(=O)O[C@H]([C@H](C)C[C@@H]2CC[C@@H](OCc3cn(-c4ccc(C(=O)O)cc4)nn3)[C@H](OC)C2)CC(=O)[C@H](C)/C=C(\C)[C@@H](O)[C@@H](OC)C(=O)[C@H](C)C[C@H](C)/C=C/C=C/C=C/1C [Compound A4] | 6600 nM
CO[C@H]1C[C@@H]2CC[C@@H](C)[C@@](O)(O2)C(=O)C(=O)N2CCCC[C@H]2C(=O)O[C@H]([C@H](C)C[C@@H]2CC[C@H](n3cc(CO)nn3)[C@H](OC)C2)CC(=O)[C@H](C)/C=C(\C)[C@@H](O)[C@@H](OC)C(=O)[C@H](C)C[C@H](C)/C=C/C=C/C=C/1C [Compound B2] | 18.4 nM
CO[C@H]1C[C@@H]2CC[C@@H](C)[C@@](O)(O2)C(=O)C(=O)N2CCCC[C@H]2C(=O)O[C@H]([C@H](C)C[C@@H]2CC[C@@H](OCc3cn(-c4ccc(N5CCN(C)CC5)cc4)nn3)[C@H](OC)C2)CC(=O)[C@H](C)/C=C(\C)[C@@H](O)[C@@H](OC)C(=O)[C@H](C)C[C@H](C)/C=C/C=C/C=C/1C [Compound A13] | > 10000 nM
CO[C@H]1C[C@@H]2CC[C@@H](C)[C@@](O)(O2)C(=O)C(=O)N2CCCC[C@H]2C(=O)O[C@H]([C@H](C)C[C@@H]2CC[C@H](n3cc(-c4ccc(C(=O)O)cc4)nn3)[C@H](OC)C2)CC(=O)[C@H](C)/C=C(\C)[C@@H](O)[C@@H](OC)C(=O)[C@H](C)C[C@H](C)/C=C/C=C/C=C/1C [Compound B11] | 446 nM
COC1CC2CCC(C)C(O)(O2)C(=O)C(=O)N2CCCCC2C(=O)OC(C(C)CC2CCC(OCc3cn(CCO)nn3)C(OC)C2)CC(=O)C(C)C=C(C)C(O)C(OC)C(=O)C(C)CC(C)C=CC=CC=C1C (centres unmarked) [Compound A9] | > 10000 nM
CO[C@H]1C[C@@H]2CC[C@@H](C)[C@@](O)(O2)C(=O)C(=O)N2CCCC[C@H]2C(=O)O[C@H]([C@H](C)C[C@@H]2CC[C@@H](OCCO)[C@H](OC)C2)CC(=O)[C@H](C)/C=C(\C)[C@@H](O)[C@@H](OC)C(=O)[C@H](C)C[C@H](C)/C=C/C=C/C=C/1C [Compound A15, reference compound] | 6.43 nM
CO[C@H]1C[C@@H]2CC[C@@H](C)[C@@](O)(O2)C(=O)C(=O)N2CCCC[C@H]2C(=O)O[C@H]([C@H](C)C[C@@H]2CC[C@@H](OCc3c[nH]nn3)[C@H](OC)C2)CC(=O)[C@H](C)/C=C(\C)[C@@H](O)[C@@H](OC)C(=O)[C@H](C)C[C@H](C)/C=C/C=C/C=C/1C [Compound A6] | 9140 nM
CO[C@H]1C[C@@H]2CC[C@@H](C)[C@@](O)(O2)C(=O)C(=O)N2CCCC[C@H]2C(=O)O[C@H]([C@H](C)C[C@@H]2CC[C@@H](OCc3cn(C45CC6CC(CC(C6)C4)C5)nn3)[C@H](OC)C2)CC(=O)[C@H](C)/C=C(\C)[C@@H](O)[C@@H](OC)C(=O)[C@H](C)C[C@H](C)/C=C/C=C/C=C/1C [Compound A3] | > 10000 nM
CO[C@H]1C[C@@H]2CC[C@@H](C)[C@@](O)(O2)C(=O)C(=O)N2CCCC[C@H]2C(=O)O[C@H]([C@H](C)C[C@@H]2CC[C@@H](OCc3cn(CC(=O)O)nn3)[C@H](OC)C2)CC(=O)[C@H](C)/C=C(\C)[C@@H](O)[C@@H](OC)C(=O)[C@H](C)C[C@H](C)/C=C/C=C/C=C/1C [Compound A12] | > 10000 nM
COC1CC2CCC(C)C(O)(O2)C(=O)C(=O)N2CCCCC2C(=O)OC(C(C)CC2CCC(OCc3cn(Cc4ccc(F)cc4)nn3)C(OC)C2)CC(=O)C(C)C=C(C)C(O)C(OC)C(=O)C(C)CC(C)C=CC=CC=C1C (centres unmarked) [Compound A14] | > 10000 nM

tested on: HCT-116 human colon cancer; test: not given; conditions: 9 mg/kg/day p.o., after 22 days treatment, compared to vehicle control

Compound | tumor growth inhibition
CO[C@H]1C[C@@H]2CC[C@@H](C)[C@@](O)(O2)C(=O)C(=O)N2CCCC[C@H]2C(=O)O[C@H]([C@H](C)C[C@@H]2CC[C@@H](OCCO)[C@H](OC)C2)CC(=O)[C@H](C)/C=C(\C)[C@@H](O)[C@@H](OC)C(=O)[C@H](C)C[C@H](C)/C=C/C=C/C=C/1C [Compound A15, reference compound] | 63%
